From ChEMBL document CHEMBL1770079, “Discovery of small molecule human FPR1 receptor antagonists” (Bioorg Med Chem Lett, 2011) come the findings set out here.

For orientation: IC50 means the concentration that gives 50% inhibition. Usually inhibition stands for the change of the read-out against control, counted positive when it falls. For orientation: solubility means the dissolved amount per volume that the medium holds. A word on the half-life: it is how long it takes for the measured level to halve. A word on the microsomal CLint: it is the rate of metabolic loss divided by the concentration.

≈ marks a conversion by molar mass, not a printed value. Calls of active or inactive are those of the source. The rule behind the calls is not given here.

Data set [1] concerns the target T1, fMet-Leu-Phe receptor (Homo sapiens, UniProt P21462).
T1 sequence (P21462 whole entry): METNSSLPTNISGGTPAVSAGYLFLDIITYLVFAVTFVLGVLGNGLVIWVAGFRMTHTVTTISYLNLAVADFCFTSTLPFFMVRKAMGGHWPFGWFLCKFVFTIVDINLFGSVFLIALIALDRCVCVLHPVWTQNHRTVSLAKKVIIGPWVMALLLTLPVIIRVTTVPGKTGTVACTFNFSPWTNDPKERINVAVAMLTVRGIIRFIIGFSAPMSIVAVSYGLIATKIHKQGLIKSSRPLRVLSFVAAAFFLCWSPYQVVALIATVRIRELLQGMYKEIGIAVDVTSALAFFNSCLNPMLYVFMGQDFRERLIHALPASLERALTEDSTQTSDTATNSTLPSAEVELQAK
Nature of the data set: Intrinsic activity at FPR1 in human neutrophils assessed as increase in calcium mobilization by FLIPR assay relative to fMLF. Format: functional. Background: Calcium assays in cells follow changes in intracellular calcium, usually with a dye or a luminescent sensor.

Data set [2] deals with T2, fMet-Leu-Phe receptor (Homo sapiens) (UniProt P21462).
T2 sequence (whole entry): T1 sequence (P21462 whole entry)
Nature of the data set: Agonist activity at FPR1 in human neutrophils assessed as increase in calcium mobilization by FLIPR assay. The data set is classed as functional. The arrangement: concentration or dose not given beside the values. Conditions: concentration not given here.

Data set [3] addresses T2, fMet-Leu-Phe receptor (Homo sapiens). Nature of the data set: Antagonist activity at FPR1 in human neutrophils assessed as inhibition of fMLF-stimulated calcium mobilization at 50 uM by FLIPR assay. The data set is classed as functional.
Data set [4] relates to Hepatocyte. Description: Intrinsic clearance in Sprague-Dawley rat hepatocytes. The data set is classed as ADME, cell-based, Liver.
The nature of data set [5]: Solubility of the compound in 0.1 M phosphate buffer. Format: physicochemical.
For data set [6], the target named is T3, C-X-C chemokine receptor type 2 (Homo sapiens) (UniProt P25025).
T3 sequence (whole entry): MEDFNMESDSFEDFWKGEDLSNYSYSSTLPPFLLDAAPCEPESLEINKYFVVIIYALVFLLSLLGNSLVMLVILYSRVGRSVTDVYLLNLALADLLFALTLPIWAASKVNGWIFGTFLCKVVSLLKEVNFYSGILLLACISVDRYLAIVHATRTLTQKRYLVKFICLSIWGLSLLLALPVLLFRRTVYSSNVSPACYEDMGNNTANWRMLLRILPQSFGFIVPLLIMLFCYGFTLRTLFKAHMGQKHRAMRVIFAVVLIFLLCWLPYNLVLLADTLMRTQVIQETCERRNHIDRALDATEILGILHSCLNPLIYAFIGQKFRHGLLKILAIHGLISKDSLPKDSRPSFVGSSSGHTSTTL
Description: Antagonist activity at CXCR2 in human neutrophils assessed as inhibition of GROalpha-stimulated intracellular calcium mobilization at 50 uM by FLIPR assay. Format: functional, cell-based.

Data set [7] can be described thus: Chemical stability of the compound assessed as half life. The data set is classed as physicochemical.
The target of data set [8] is T1, fMet-Leu-Phe receptor. Nature of the data set: Antagonist activity at FPR1 in human neutrophils assessed as inhibition of fMLF-stimulated calcium mobilization by FLIPR assay. Format: functional.
Data set [9] addresses T2, fMet-Leu-Phe receptor (Homo sapiens). Description: Reversible inhibition of FPR1 in human neutrophils assessed as inhibition of fMLF-stimulated calcium mobilisation by FLIPR assay. The data set is classed as functional.
Data set [10] has the same target. Nature of the data set: Antagonist activity at FPR1 in human neutrophils assessed as inhibition of PMA-stimulated neutrophil degranulation after 15 mins by fluorescence assay. The data set is classed as functional.
A short description of data set [11]: Antagonist activity at rat FPR1 expressed in HEK293 cells assessed as inhibition of fMLF-stimulated intracellular calcium mobilisation by FLIPR assay. Format: functional, cell-based.
Data set [12] addresses T4, C5a anaphylatoxin chemotactic receptor 1 (Homo sapiens) (UniProt P21730).
T4 sequence (whole entry): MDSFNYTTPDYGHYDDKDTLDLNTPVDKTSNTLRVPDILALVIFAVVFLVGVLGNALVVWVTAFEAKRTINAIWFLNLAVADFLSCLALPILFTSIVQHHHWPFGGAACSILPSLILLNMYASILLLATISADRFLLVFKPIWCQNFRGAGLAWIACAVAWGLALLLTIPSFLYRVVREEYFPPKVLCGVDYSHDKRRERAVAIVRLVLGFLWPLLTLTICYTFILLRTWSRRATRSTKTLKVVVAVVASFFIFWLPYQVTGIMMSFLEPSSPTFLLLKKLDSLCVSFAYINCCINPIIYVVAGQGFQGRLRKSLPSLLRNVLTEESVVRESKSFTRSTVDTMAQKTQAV
Description: Antagonist activity at C5aR in human neutrophils assessed as inhibition of C5a-stimulated intracellular calcium mobilization at 50 uM by FLIPR assay. Format: functional, cell-based.

The target of data set [13] is T1, fMet-Leu-Phe receptor. Nature of the data set: Displacement of [3H]fMLF from human FPR1 expressed in CHO cells by scintillation counting. The data set is classed as cell-based.
The target of data set [14] is T5, N-formyl peptide receptor 2 (Homo sapiens) (UniProt P25090).
T5 sequence (whole entry): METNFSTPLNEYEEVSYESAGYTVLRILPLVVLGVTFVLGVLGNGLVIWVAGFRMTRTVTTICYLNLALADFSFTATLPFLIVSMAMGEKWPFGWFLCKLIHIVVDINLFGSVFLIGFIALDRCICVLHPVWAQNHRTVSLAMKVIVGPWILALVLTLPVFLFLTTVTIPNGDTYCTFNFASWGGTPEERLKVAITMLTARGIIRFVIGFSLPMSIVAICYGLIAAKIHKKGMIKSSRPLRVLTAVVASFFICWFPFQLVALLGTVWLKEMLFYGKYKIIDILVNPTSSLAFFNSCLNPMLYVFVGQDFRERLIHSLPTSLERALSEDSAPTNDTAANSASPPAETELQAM
Description: Antagonist activity at FPR2 in human neutrophils assessed as inhibition of SHHGtide-stimulated intracellular calcium mobilisation at 50 uM by FLIPR assay. The data set is classed as functional, cell-based.

A short description of data set [15]: Intrinsic clearance in human microsomes. The data set is classed as ADME, Microsome.
Data set [16] deals with T1, fMet-Leu-Phe receptor. Description: Antagonist activity at FPR1 in human neutrophils assessed as inhibition of fMLF-stimulated degranulation after 15 mins by fluorescence assay. The data set is classed as functional.
Data set [17] addresses T2, fMet-Leu-Phe receptor (Homo sapiens). Nature of the data set: Agonist activity at FPR1 in human neutrophils assessed as increase in calcium mobilization at 50 uM by FLIPR assay. Format: functional.
For data set [18], the system named is THP-1. Description: Cytotoxicity against human THP1 cells assessed as cell viability after 24 hrs by Alamar blue assay. The data set is classed as cell-based. The note with it: THP-1, 24 h. For orientation: The colour change of resazurin is a common sign of viable cells or microbes.
The target of data set [19] is T6, fMet-Leu-Phe receptor (Mus musculus, UniProt P33766).
T6 sequence (P33766 whole entry): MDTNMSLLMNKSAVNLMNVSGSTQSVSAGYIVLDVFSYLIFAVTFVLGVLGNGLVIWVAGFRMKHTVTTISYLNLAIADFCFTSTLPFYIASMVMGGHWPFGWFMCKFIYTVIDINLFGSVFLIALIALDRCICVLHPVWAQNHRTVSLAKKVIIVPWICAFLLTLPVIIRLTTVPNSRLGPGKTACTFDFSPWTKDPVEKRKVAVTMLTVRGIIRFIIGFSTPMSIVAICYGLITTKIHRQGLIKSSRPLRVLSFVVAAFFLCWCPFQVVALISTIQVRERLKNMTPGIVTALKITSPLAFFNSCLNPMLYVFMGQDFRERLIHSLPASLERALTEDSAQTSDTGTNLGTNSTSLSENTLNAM
Nature of the data set: Antagonist activity at mouse FPR1 expressed in HEK293 cells assessed as inhibition of fMLFF-stimulated intracellular calcium mobilisation by FLIPR assay. The data set is classed as functional, cell-based.

Data set [20] concerns the target T1, fMet-Leu-Phe receptor. Description: Antagonist activity at human FPR1 in expressed in HEK293 cells assessed as inhibition of fMLF-stimulated intracellular calcium mobilisation after 5 mins by FLIPR assay. The data set is classed as functional, cell-based.
Data set [21] concerns the target T7, fMet-Leu-Phe receptor (Mus musculus) (UniProt P33766).
T7 sequence (whole entry): T6 sequence (P33766 whole entry)
Nature of the data set: Antagonist activity at mouse FPR1 expressed in HEK293 cells assessed as inhibition of fMLFF-stimulated intracellular calcium mobilisation at 50 uM by FLIPR assay. Format: functional, cell-based.

Consider `O=C(NC(C(=O)Nc1ccccc1)c1ccc(Cl)cc1)c1ccccc1O` (stereo not given), for which the concentration for half-maximal inhibition (IC50) in data set [1] was 5.01 µM.
As to `CSCCC(NC(=O)c1sccc1Cl)c1ncc(-c2ccccc2)[nH]1` (stereo not given), the inhibition in data set [2] was less than 25%. Also, the IC50 in data set [1] was 6.31 µM.
`Cc1ccccc1C(=O)NC(C(=O)Nc1c(C)cccc1C)c1ccc(Cl)cc1` (stereo not given): the inhibition in [3] was less than 25%.
As to `Cc1cccc(C(NC(=O)c2ccccc2O)C(=O)Nc2c(C)cccc2C)c1C` (stereo not given), the IC50 in data set [1] was 0.0794 µM.
For `CCOc1ccc2oc(C(=O)NC(c3nc4ccccc4[nH]3)c3cccs3)c(C)c2c1` (stereo not given), the inhibition in data set [3] was less than 25%.
In the case of `Cc1cccc(C)c1NC(=O)C(NC(=O)c1ccccc1O)c1ccccc1` (stereo not given), in data set [1], the half-maximal inhibitory concentration (IC50) is 1.26 µM.
Still for that read-out and setting: the figure for `Cc1cccc(C)c1NC(=O)C(c1ccccc1)N(C)C(=O)c1ccccc1O` (stereo not given) is 10 µM.
Turning to `Cc1ccc(C(NC(=O)c2ccccc2O)C(=O)Nc2c(C)cccc2C)s1` (stereo not given), the CL in [4] was 70 µL/min. In addition, in data set [5], the solubility was found to be 68 µM (≈ 26.8 µg/mL). Further, the inhibition in data set [6], in data set [10], in data set [12], in data set [14] and in [17] was less than 25% throughout. Moreover, in data set [7], the half-life is greater than 10.8 days. Moreover, the IC50 was 0.398 µM in [8]; 1.26 µM in data set [11]; 0.1 µM in [13]; 0.398 µM in data set [16]; 79.4 µM in [18]; 25.1 µM in [19]. In addition, the IC50 in data set [1] is 0.316 µM; in data set [20], 1.58 µM. For the same compound, the inhibition entry in data set [9] is “Active”. This compound also had an intrinsic metabolic clearance (microsomal CLint) in data set [15] of 43 µL/min/mg.
As for `CCOc1ccc2oc(C(=O)NC(CS(C)(=O)=O)c3nc4ccccc4[nH]3)c(C)c2c1` (stereo not given), the intrinsic metabolic clearance (microsomal CLint) in [15] amounted to 3 µL/min/mg. In addition, in [1], the IC50 is 10 µM.
In the case of `CSCCC(NC(=O)c1ccccc1)c1nc2ccccc2n1Cc1ccccc1` (stereo not given), in data set [2], the inhibition is less than 25%. The 50% inhibitory concentration (IC50) in data set [1] is 2.51 µM.
Consider `COc1ccccc1C(=O)NC(C(=O)Nc1c(C)cccc1C)c1ccc(Cl)cc1` (stereo not given), for which the inhibition in [3] is less than 25%.
In the case of `CSCCC(NC(=O)c1ccccc1O)c1nc2ccccc2[nH]1` (stereo not given), the IC50 in data set [1] is 3.98 µM.
In the case of `CSCCC(NC(=O)c1cnccn1)c1nc2ccccc2[nH]1` (stereo not given), in [1], the IC50 was 10 µM.
`CCOc1ccc2oc(C(=O)N[C@@H](CSC)c3nc4ccccc4[nH]3)c(C)c2c1`: the IC50 in [1] was greater than 25.1 µM.
The same measure, in the same setting: the figure for `CSCCC(NC(=O)c1ccc(C)cc1)c1nc2ccccc2[nH]1` (stereo not given) is 10 µM; for `CSCCC(NC(=O)c1ocnc1C)c1nc2ccccc2[nH]1` (stereo not given) it is 10 µM.
The compound `CCOc1ccc2oc(C(=O)NC(CCSC)c3nc4ccccc4[nH]3)c(C)c2c1` (stereo not given) yielded a solubility in data set [5] of 17 µM (≈ 7.2 µg/mL). Besides, the inhibition in data set [6], in [10], in [12], in data set [14], in data set [17] and in data set [21] was less than 25% in each case. For the same compound, the half-maximal inhibitory concentration (IC50) was 0.501 µM in data set [8]; 10 µM in data set [11]; 0.0316 µM in data set [13]; 0.158 µM in data set [16]; 100 µM in data set [18]; 0.501 µM in [1]. Moreover, the IC50 in [20] is 3.16 µM. In addition, the inhibition result in data set [9] is “Active”.
Regarding `CCOc1ccc2oc(C(=O)NC(CCSC)c3nc4ncncc4[nH]3)c(C)c2c1` (stereo not given), the inhibition in [2] is less than 25%. In addition, the IC50 in data set [1] was 5.01 µM.
In the case of `CCOc1ccc2oc(C(=O)NC(c3ccccc3)c3nc4ccccc4[nH]3)c(C)c2c1` (stereo not given), the intrinsic clearance (microsomal CLint) in data set [15] came out at 14 µL/min/mg. The inhibition in data set [3] was less than 25%.
